Results taken from PubChem BioAssay AID256 (DTP/NCI, 2004).
Inconclusive results and toxic doses are left out. Positions of bridges follow the written chain, without caps; N, C: chain ends. Residues, ends and D or L forms follow the SMILES beside them.

Tested on: CD2F1 mice, L1210 leukemia ip, survival T/C
Assay: NCI In Vivo Anticancer Drug Screen. Data for tumor model L1210 Leukemia (intraperitoneal) in CD2F1 (CDF1) mice
Settings: higher = longer survival
Method in brief: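 Tumor-bearing mice (transplanted tumor) were split into treated and vehicle control groups, and the measured endpoint of each treated group was divided by that of its vehicle controls.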

[1] = endpoint: mean survival time, dose: 100.0 mg/kg/injection, schedule: Q01DX009 (ip), vehicle: saline with Tween-80
[2] = endpoint: mean survival time, dose: 100.0 mg/kg/injection, schedule: Q04DX003 (ip), vehicle: saline with Tween-80
[3] = endpoint: mean survival time, dose: 200.0 mg/kg/injection, schedule: Q01DX009 (ip), vehicle: saline with Tween-80
[4] = endpoint: mean survival time, dose: 200.0 mg/kg/injection, schedule: Q04DX003 (ip), vehicle: saline with Tween-80
[5] = endpoint: mean survival time, dose: 400.0 mg/kg/injection, schedule: Q01DX009 (ip), vehicle: saline with Tween-80
[6] = endpoint: mean survival time, dose: 400.0 mg/kg/injection, schedule: Q04DX003 (ip), vehicle: saline with Tween-80

CCCCOC(=O)c1ccc(NC(=O)Nc2ccccc2OC)cc1
T/C [1]: 97 % of control | T/C [2]: 108 % of control | T/C [3]: 91 % of control | T/C [4]: 103 % of control | T/C [5]: 92 % of control | T/C [6]: 88 % of control

CCC(C)C1NC(=O)C(CC(C)C)NC(=O)C(C(C)C)NC(=O)C2CSSCC(NC1=O)C(=O)N2 (stereo unspecified) (cyclo(CCVLI); disulfide 1-2; configuration not given here)
T/C (endpoint: mean survival time, dose: 31.25 micrograms/kg/injection, schedule: Q01DX009 (ip), vehicle: Klucel (hydroxypropylcellulose) (HPC)): 93 % of control | T/C (endpoint: mean survival time, dose: 62.5 micrograms/kg/injection, schedule: Q01DX009 (ip), vehicle: Klucel (hydroxypropylcellulose) (HPC)): 95 % of control | T/C (endpoint: mean survival time, dose: 125.0 micrograms/kg/injection, schedule: Q01DX009 (ip), vehicle: Klucel (hydroxypropylcellulose) (HPC)): 98 % of control | T/C (endpoint: mean survival time, dose: 250.0 micrograms/kg/injection, schedule: Q01DX009 (ip), vehicle: Klucel (hydroxypropylcellulose) (HPC)): 96 % of control | T/C (endpoint: mean survival time, dose: 500.0 micrograms/kg/injection, schedule: Q01DX009 (ip), vehicle: Klucel (hydroxypropylcellulose) (HPC)): 98 % of control | T/C (endpoint: mean survival time, dose: 1000.0 micrograms/kg/injection, schedule: Q01DX009 (ip), vehicle: Klucel (hydroxypropylcellulose) (HPC)): 96 % of control

N#CC(C#N)=CN1CCCC1
T/C (endpoint: mean survival time, dose: 5.0 mg/kg/injection, schedule: Q01DX001 (ip), vehicle: saline with Tween-80): 100 % of control | T/C (endpoint: mean survival time, dose: 10.0 mg/kg/injection, schedule: Q01DX001 (ip), vehicle: saline with Tween-80): 102 % of control | T/C (endpoint: mean survival time, dose: 20.0 mg/kg/injection, schedule: Q01DX001 (ip), vehicle: saline with Tween-80): 93 % of control

C[Si](C)(C)Oc1cccc(O[Si](C)(C)C)c1
T/C [1]: 92 % of control | T/C [3]: 94 % of control | T/C [5]: 87 % of control

CC1(C)OCC(C(=O)C(OC(=O)c2ccccc2)C2COC(C)(C)O2)O1 (stereo unspecified)
T/C (endpoint: mean survival time, dose: 50.0 mg/kg/injection, schedule: Q01DX009 (ip), vehicle: Klucel (hydroxypropylcellulose) (HPC)): 94 % of control | T/C (endpoint: mean survival time, dose: 100.0 mg/kg/injection, schedule: Q01DX009 (ip), vehicle: Klucel (hydroxypropylcellulose) (HPC)): 88 % of control | T/C (endpoint: mean survival time, dose: 200.0 mg/kg/injection, schedule: Q01DX009 (ip), vehicle: Klucel (hydroxypropylcellulose) (HPC)): 98 % of control

CSc1nc(NC2OCC(O)C(O)C2O)c(I)c(=O)n1C (stereo unspecified)
T/C (endpoint: median survival time, dose: 12.5 mg/kg/injection, schedule: Q01DX005 (ip), vehicle: saline with Tween-80): 103 % of control | T/C (endpoint: median survival time, dose: 25.0 mg/kg/injection, schedule: Q01DX005 (ip), vehicle: saline with Tween-80): 101 % of control | T/C (endpoint: median survival time, dose: 50.0 mg/kg/injection, schedule: Q01DX005 (ip), vehicle: saline with Tween-80): 101 % of control | T/C (endpoint: median survival time, dose: 100.0 mg/kg/injection, schedule: Q01DX005 (ip), vehicle: saline with Tween-80): 100 % of control | T/C (endpoint: median survival time, dose: 200.0 mg/kg/injection, schedule: Q01DX005 (ip), vehicle: saline with Tween-80): 100 % of control

CCCCCCCCCCCCCCCCCC[N+]1(CC)CCCCC1
T/C (endpoint: mean survival time, dose: 0.09 mg/kg/injection, schedule: Q01DX009 (ip), vehicle: saline): 98 % of control | T/C (endpoint: mean survival time, dose: 0.19 mg/kg/injection, schedule: Q01DX009 (ip), vehicle: saline): 98 % of control | T/C (endpoint: mean survival time, dose: 0.39 mg/kg/injection, schedule: Q01DX009 (ip), vehicle: saline): 101 % of control | T/C (endpoint: mean survival time, dose: 0.78 mg/kg/injection, schedule: Q01DX009 (ip), vehicle: saline): 98 % of control

CCC1CCCC[N-]1.CCC1CCCC[N-]1.[Cl][Pt+2][Cl] (stereo unspecified)
T/C (endpoint: mean survival time, dose: 18.8 mg/kg/injection, schedule: Q04DX003 (ip), vehicle: saline with Tween-80): 106 % of control | T/C (endpoint: mean survival time, dose: 37.5 mg/kg/injection, schedule: Q04DX003 (ip), vehicle: saline with Tween-80): 100 % of control | T/C (endpoint: mean survival time, dose: 75.0 mg/kg/injection, schedule: Q04DX003 (ip), vehicle: saline with Tween-80): 91 % of control | T/C (endpoint: mean survival time, dose: 150.0 mg/kg/injection, schedule: Q04DX003 (ip), vehicle: saline with Tween-80): 91 % of control | T/C (endpoint: mean survival time, dose: 300.0 mg/kg/injection, schedule: Q04DX003 (ip), vehicle: saline with Tween-80): 88 % of control

O=C(NCCCN1CC1)C(=O)NCCCN1CC1
T/C (endpoint: mean survival time, dose: 3.13 mg/kg/injection, schedule: Q01DX009 (ip), vehicle: saline): 191 % of control | T/C (endpoint: mean survival time, dose: 12.5 mg/kg/injection, schedule: Q01DX009 (ip), vehicle: saline): 101 % of control

N#CN1CCC2CC3(CCC2C1)OCCO3 (stereo unspecified)
T/C (endpoint: mean survival time, dose: 100.0 mg/kg/injection, schedule: Q01DX001 (ip), vehicle: saline): 96 % of control | T/C (endpoint: mean survival time, dose: 200.0 mg/kg/injection, schedule: Q01DX001 (ip), vehicle: saline): 91 % of control | T/C (endpoint: mean survival time, dose: 400.0 mg/kg/injection, schedule: Q01DX001 (ip), vehicle: saline): 96 % of control

c1ccc(P(c2ccccc2)c2ccccc2)cc1
T/C (endpoint: mean survival time, dose: 50.0 mg/kg/injection, schedule: Q01DX009 (ip), vehicle: saline with Tween-80): 96 % of control | T/C [1]: 100 % of control | T/C [2]: 100 % of control | T/C [3]: 98 % of control | T/C [4]: 100 % of control | T/C [6]: 93 % of control
